Each block holds one molecule with its values, some of them ahead of it.
Tests used:
[1] = molecular target: T1, Serine/threonine-protein kinase Chk1 (Homo sapiens) (UniProt O14757); test: Inhibition of CHEK1 at 10 uM after 60 mins by TR-FRET assay
T1 sequence (whole entry): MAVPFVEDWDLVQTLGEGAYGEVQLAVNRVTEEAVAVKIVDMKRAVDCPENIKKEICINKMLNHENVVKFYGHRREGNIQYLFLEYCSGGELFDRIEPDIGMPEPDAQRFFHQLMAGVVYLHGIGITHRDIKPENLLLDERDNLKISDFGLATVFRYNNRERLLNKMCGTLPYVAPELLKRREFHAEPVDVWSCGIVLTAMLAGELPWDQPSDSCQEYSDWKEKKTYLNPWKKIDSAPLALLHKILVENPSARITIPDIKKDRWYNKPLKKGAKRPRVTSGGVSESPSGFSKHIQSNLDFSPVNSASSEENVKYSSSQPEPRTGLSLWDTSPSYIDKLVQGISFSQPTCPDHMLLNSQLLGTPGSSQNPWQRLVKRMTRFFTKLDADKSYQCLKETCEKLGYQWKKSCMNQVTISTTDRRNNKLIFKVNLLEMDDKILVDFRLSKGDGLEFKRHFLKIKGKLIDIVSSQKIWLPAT

[2] = molecular target: Tyrosine-protein kinase Blk (Mus musculus) (UniProt P16277); test: Inhibition of mouse Blk at 10 uM after 60 mins by TR-FRET assay; values are per cent of control
[3] = molecular target: Serine/threonine-protein kinase haspin (Homo sapiens) (UniProt Q8TF76); test: Inhibition of human Haspin at 10 uM after 60 mins by TR-FRET assay; values are per cent of control
Sequence of Serine/threonine-protein kinase haspin (Homo sapiens) (Q8TF76 whole entry): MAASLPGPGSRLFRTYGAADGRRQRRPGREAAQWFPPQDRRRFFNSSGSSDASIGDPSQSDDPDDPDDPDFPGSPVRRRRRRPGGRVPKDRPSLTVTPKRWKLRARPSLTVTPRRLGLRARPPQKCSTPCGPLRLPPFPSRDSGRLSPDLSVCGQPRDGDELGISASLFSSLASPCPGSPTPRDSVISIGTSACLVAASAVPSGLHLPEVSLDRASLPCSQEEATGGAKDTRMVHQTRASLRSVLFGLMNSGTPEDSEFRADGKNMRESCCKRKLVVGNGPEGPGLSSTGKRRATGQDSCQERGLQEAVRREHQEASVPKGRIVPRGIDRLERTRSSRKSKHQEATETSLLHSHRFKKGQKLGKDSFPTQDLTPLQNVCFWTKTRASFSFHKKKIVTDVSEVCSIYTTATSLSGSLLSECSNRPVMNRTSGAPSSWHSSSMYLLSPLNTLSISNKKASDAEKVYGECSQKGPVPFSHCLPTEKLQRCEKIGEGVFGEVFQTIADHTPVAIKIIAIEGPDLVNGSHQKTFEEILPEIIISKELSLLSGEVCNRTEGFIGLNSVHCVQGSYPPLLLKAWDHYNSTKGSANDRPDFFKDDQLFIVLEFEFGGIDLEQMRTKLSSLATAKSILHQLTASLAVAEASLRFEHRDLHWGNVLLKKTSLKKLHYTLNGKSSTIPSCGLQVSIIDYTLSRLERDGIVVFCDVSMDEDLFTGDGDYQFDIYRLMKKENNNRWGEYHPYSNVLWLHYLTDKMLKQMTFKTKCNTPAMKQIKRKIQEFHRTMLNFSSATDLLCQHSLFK

[4] = molecular target: Protein kinase C gamma type (Homo sapiens) (UniProt P05129); test: Inhibition of human PKCgamma at 10 uM after 60 mins by TR-FRET assay; values are per cent of control
[5] = system: Proto-oncogene tyrosine-protein kinase Src (Homo sapiens), P12931 [T341M]; test: Inhibition of human Src T341M mutant at 10 uM after 60 mins by TR-FRET assay; values are per cent of control
[6] = molecular target: Macrophage-stimulating protein receptor (Homo sapiens) (UniProt Q04912); test: Inhibition of human Ron at 10 uM after 60 mins by TR-FRET assay; details: values are per cent of control
Sequence of Macrophage-stimulating protein receptor (Homo sapiens) (Q04912 25-304 limits assumed): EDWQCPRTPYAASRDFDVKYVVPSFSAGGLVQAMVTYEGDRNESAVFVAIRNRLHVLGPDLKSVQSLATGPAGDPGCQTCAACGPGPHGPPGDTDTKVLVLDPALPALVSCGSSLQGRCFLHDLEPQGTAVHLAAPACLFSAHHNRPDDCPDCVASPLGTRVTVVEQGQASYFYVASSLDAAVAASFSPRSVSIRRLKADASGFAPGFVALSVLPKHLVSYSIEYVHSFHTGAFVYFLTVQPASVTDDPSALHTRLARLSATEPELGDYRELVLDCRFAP
Sequence of Macrophage-stimulating protein receptor (Homo sapiens) (Q04912 310-1400 limits assumed): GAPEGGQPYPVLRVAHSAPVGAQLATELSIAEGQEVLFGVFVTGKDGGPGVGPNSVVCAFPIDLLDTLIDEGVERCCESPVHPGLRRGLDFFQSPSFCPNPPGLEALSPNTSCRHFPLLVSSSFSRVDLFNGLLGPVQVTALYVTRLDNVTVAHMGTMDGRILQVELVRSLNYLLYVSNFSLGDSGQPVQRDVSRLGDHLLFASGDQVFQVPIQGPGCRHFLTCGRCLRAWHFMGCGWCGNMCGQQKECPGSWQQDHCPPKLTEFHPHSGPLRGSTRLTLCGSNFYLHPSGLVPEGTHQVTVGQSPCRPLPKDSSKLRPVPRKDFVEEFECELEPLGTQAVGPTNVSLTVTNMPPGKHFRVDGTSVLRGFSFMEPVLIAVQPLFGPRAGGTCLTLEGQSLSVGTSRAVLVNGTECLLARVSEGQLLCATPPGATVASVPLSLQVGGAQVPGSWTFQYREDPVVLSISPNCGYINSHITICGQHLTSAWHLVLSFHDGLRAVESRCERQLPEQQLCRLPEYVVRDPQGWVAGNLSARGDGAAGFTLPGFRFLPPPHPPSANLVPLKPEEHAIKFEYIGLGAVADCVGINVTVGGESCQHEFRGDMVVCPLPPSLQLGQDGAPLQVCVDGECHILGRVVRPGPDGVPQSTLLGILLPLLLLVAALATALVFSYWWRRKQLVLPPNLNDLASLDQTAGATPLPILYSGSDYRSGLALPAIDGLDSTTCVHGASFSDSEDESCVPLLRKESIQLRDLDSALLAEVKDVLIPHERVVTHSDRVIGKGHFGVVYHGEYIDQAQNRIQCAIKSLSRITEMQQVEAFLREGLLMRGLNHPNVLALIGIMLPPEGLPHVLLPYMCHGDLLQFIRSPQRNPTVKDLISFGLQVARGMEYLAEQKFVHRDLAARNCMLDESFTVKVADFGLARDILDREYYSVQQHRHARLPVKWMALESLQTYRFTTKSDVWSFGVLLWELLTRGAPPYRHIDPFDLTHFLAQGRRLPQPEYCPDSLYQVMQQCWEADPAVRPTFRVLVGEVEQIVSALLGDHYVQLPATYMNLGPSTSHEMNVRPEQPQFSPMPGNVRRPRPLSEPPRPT

[7] = molecular target: Fibroblast growth factor receptor 3 (Homo sapiens) (UniProt P22607); test: Inhibition of human FGFR3 at 10 uM after 60 mins by TR-FRET assay; values are per cent of control
[8] = molecular target: Mitogen-activated protein kinase 11 (Homo sapiens) (UniProt Q15759); test: Inhibition of human SAPK2b at 10 uM after 60 mins by TR-FRET assay; details: values are per cent of control
[9] = molecular target: Serine/threonine-protein kinase 17A (Homo sapiens) (UniProt Q9UEE5); test: Inhibition of human DRAK1 at 10 uM after 60 mins by TR-FRET assay; values are per cent of control
[10] = system: Proto-oncogene tyrosine-protein kinase receptor Ret (Homo sapiens), P07949 [V804L]; test: Inhibition of human Ret V804L mutant at 10 uM after 60 mins by TR-FRET assay; values are per cent of control
[11] = molecular target: Rho-associated protein kinase 2 (Rattus norvegicus) (UniProt Q62868); test: Inhibition of rat ROCK-2 at 10 uM after 60 mins by TR-FRET assay; values are per cent of control
[12] = molecular target: cGMP-dependent protein kinase 1 (Homo sapiens) (UniProt Q13976); test: Inhibition of human PKG1alpha at 10 uM after 60 mins by TR-FRET assay; values are per cent of control
Sequence of cGMP-dependent protein kinase 1 (Homo sapiens) (Q13976 whole entry): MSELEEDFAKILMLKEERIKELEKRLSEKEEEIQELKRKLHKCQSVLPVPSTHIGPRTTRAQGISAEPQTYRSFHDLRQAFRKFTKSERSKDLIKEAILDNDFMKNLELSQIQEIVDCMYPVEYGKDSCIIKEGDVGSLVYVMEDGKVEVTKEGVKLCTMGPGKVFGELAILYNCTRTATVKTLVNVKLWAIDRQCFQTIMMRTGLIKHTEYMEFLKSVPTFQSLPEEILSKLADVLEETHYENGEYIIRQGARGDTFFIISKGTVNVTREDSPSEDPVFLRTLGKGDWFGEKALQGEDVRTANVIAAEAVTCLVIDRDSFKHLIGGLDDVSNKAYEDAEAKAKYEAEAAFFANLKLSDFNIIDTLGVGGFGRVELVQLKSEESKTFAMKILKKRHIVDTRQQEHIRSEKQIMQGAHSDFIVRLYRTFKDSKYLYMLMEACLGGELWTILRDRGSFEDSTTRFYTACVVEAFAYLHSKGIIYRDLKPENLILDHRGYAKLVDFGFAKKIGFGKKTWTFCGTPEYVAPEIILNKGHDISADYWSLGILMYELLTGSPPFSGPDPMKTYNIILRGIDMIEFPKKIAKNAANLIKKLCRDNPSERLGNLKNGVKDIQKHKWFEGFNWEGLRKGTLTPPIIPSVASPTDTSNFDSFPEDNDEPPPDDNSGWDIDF

[13] = molecular target: Platelet-derived growth factor receptor beta (Homo sapiens) (UniProt P09619); test: Inhibition of human PDGFRbeta at 10 uM after 60 mins by TR-FRET assay; values are per cent of control
[14] = molecular target: Tyrosine-protein kinase Mer (Homo sapiens) (UniProt Q12866); test: Inhibition of human Mer at 10 uM after 60 mins by TR-FRET assay; values are per cent of control
Sequence of Tyrosine-protein kinase Mer (Homo sapiens) (Q12866 whole entry): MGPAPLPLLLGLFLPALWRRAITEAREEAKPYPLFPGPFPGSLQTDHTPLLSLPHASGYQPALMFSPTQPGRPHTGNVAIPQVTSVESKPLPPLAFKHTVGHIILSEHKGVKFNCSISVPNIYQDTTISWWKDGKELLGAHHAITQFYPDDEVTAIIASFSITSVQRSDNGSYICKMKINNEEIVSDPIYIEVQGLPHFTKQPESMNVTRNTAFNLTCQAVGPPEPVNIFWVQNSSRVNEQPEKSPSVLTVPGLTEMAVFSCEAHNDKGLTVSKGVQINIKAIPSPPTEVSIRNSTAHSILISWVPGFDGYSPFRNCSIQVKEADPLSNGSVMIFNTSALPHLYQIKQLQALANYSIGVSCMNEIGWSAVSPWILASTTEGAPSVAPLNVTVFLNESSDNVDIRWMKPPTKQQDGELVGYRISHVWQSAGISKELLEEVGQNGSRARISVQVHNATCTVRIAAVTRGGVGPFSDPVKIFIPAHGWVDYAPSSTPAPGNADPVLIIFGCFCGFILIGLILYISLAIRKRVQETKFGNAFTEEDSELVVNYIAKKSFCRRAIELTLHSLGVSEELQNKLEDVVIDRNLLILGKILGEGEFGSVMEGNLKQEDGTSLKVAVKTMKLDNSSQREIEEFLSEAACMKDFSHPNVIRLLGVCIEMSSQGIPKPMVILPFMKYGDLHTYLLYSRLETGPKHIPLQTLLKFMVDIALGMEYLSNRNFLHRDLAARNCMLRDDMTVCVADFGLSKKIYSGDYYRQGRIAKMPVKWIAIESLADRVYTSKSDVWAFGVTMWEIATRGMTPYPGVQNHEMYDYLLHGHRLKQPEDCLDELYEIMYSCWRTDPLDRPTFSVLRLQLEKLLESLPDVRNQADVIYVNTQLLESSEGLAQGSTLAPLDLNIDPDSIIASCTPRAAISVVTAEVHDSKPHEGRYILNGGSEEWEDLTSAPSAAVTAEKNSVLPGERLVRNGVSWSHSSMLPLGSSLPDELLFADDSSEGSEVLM

[15] = molecular target: Tyrosine-protein kinase Lyn (Homo sapiens) (UniProt P07948); test: Inhibition of human Lyn at 10 uM after 60 mins by TR-FRET assay; details: values are per cent of control
[16] = molecular target: Serine/threonine-protein kinase D1 (Homo sapiens) (UniProt Q15139); test: Inhibition of human PKCmu at 10 uM after 60 mins by TR-FRET assay; values are per cent of control
[17] = molecular target: Serine/threonine-protein kinase TAO2 (Homo sapiens) (UniProt Q9UL54); test: Inhibition of human TAO2 at 10 uM after 60 mins by TR-FRET assay; values are per cent of control
[18] = system: Epidermal growth factor receptor (Homo sapiens), P00533 [L861Q]; test: Inhibition of human EGFR L861Q mutant at 10 uM after 60 mins by TR-FRET assay; assay type: protein assay; details: values are per cent of control
[19] = molecular target: Dual specificity mitogen-activated protein kinase kinase 6 (Homo sapiens) (UniProt P52564); test: Inhibition of human MKK6 at 10 uM after 60 mins by TR-FRET assay; values are per cent of control
[20] = molecular target: Tyrosine-protein kinase ZAP-70 (Homo sapiens) (UniProt P43403); test: Inhibition of human ZAP-70 at 10 uM after 60 mins by TR-FRET assay; values are per cent of control
[21] = molecular target: Casein kinase I isoform gamma-3 (Homo sapiens) (UniProt Q9Y6M4); test: Inhibition of human CK1gamma3 at 10 uM after 60 mins by TR-FRET assay; values are per cent of control
[22] = molecular target: Death-associated protein kinase 1 (Homo sapiens) (UniProt P53355); test: Inhibition of human DAPK1 at 10 uM after 60 mins by TR-FRET assay; values are per cent of control
[23] = molecular target: Serine/threonine-protein kinase Sgk2 (Homo sapiens) (UniProt Q9HBY8); test: Inhibition of human SGK2 at 10 uM after 60 mins by TR-FRET assay; values are per cent of control
[24] = molecular target: Mitogen-activated protein kinase kinase kinase 9 (Homo sapiens) (UniProt P80192); test: Inhibition of human MLK1 at 10 uM after 60 mins by TR-FRET assay; values are per cent of control
Sequence of Mitogen-activated protein kinase kinase kinase 9 (Homo sapiens) (P80192 whole entry, looked up): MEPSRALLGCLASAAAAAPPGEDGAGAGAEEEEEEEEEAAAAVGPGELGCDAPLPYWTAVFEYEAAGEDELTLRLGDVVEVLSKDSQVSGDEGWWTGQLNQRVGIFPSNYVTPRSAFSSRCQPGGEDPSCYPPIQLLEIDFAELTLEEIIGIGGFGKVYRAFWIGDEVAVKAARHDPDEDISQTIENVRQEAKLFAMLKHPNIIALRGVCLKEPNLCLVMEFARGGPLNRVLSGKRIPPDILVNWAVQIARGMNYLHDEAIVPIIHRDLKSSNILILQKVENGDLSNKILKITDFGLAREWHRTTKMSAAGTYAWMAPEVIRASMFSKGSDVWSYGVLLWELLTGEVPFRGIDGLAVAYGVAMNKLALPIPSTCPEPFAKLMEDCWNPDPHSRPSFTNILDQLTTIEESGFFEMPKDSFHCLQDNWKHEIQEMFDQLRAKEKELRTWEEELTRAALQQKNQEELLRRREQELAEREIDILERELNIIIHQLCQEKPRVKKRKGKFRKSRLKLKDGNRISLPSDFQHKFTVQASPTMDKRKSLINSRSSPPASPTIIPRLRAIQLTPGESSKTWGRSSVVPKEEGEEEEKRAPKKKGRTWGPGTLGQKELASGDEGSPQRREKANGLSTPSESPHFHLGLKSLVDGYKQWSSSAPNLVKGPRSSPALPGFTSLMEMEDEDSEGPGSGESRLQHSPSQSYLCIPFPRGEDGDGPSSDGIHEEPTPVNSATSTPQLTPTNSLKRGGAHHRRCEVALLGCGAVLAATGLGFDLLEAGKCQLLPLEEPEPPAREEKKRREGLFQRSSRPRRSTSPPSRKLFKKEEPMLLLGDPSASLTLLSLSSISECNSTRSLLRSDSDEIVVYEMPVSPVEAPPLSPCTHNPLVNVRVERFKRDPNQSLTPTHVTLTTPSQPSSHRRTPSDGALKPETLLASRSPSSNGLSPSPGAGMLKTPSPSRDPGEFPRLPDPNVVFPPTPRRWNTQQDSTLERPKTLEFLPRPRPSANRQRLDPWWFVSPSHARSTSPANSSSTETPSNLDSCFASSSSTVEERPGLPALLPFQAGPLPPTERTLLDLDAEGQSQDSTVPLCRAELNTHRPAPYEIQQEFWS

[25] = Neuroprotective activity in human cortical neurons assessed as inhibition of amyloid-beta-induced toxicity after 2 to 3 days; assay type: functional; details: cortical neurone

Structure (SMILES): O=c1n(Cc2ccccn2)nc(-c2ccnc(NC3CCOCC3)c2)n1-c1ccc2ccccc2c1
- inhibition [1]: -9%

Structure (SMILES): O=c1n(C2CCOCC2)nc(-c2ccnc(NC3CCCCC3)c2)n1-c1ccc2ccccc2c1
- inhibition [1]: -4%

Structure (SMILES): O=c1n(Cc2ccncc2)nc(-c2ccnc(NC3CCCCC3)c2)n1-c1ccc2ccccc2c1
- inhibition [1]: -9%
- EC50 [25]: 12 µM

Second part, led by results:

- residual activity [2]: 107%
- residual activity [3]: 102%
- residual activity [4]: 102%
- residual activity [5]: 113%
- residual activity [6]: 110%
- residual activity [7]: 109%
- residual activity [8]: 90%
- residual activity [9]: 96%
- residual activity [10]: 109%
- residual activity [11]: 101%
- residual activity [12]: 108%
- residual activity [13]: 99%
- residual activity [14]: 107%
- residual activity [15]: 102%
- residual activity [16]: 104%
- residual activity [17]: 103%
- residual activity [18]: 64%
- residual activity [19]: 85%
- residual activity [20]: 100%
- residual activity [21]: 108%
- residual activity [23]: 119%
- residual activity [24]: 109%
Structure (SMILES): S=c1[nH]nc(-c2ccncc2)n1-c1ccc2ccccc2c1
- residual activity [22]: 108%

- inhibition [1]: -9%
Structure (SMILES): O=c1[nH]nc(-c2ccnc(NC3CCCOC3)c2)n1-c1ccc2ccccc2c1 (stereo not given)

- inhibition [1]: -5%
Structure (SMILES): O=c1[nH]nc(-c2ccnc(NC3CCCCC3)c2)n1-c1ccc2ccccc2c1
- EC50 [25]: > 50 µM

From ChEMBL document CHEMBL1641539 (Bioorg Med Chem Lett, 2011)
